Test results as given in paper PMC8260145 (Archives of biochemistry and biophysics, 2021).
Where “and” joins values, the source holds several entries; their conditions need not be identical. Identical values can stand only once. Like-named read-outs stand apart in the source and are kept apart here.

Columns and labels:
recombinant human CYP3A4 [1] = molecular target: T1, recombinant human CYP3A4 (Homo sapiens, UniProt P08684)
recombinant human CYP3A5 [2] = molecular target: T2, recombinant human CYP3A5 (Homo sapiens, UniProt P20815); assay: biochemical
T2 sequence (P20815 whole entry): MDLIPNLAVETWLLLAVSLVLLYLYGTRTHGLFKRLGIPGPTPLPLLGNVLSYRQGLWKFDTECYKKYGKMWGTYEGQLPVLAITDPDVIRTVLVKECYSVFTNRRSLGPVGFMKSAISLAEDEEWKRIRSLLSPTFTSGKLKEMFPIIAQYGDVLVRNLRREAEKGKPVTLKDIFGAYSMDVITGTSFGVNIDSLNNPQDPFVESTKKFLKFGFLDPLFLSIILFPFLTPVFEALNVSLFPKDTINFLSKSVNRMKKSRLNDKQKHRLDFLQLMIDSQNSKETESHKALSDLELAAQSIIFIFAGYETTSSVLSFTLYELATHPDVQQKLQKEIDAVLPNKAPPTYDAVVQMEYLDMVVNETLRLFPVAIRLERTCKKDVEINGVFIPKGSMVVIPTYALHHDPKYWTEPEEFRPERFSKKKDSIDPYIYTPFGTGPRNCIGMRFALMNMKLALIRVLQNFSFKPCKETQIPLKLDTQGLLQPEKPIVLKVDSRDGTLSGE

[3] = molecular target: T3, recombinant human CYP2C19 (Homo sapiens, UniProt P33261); assay: Inhibition of C152 metabolism in SS
T3 sequence (P33261 whole entry): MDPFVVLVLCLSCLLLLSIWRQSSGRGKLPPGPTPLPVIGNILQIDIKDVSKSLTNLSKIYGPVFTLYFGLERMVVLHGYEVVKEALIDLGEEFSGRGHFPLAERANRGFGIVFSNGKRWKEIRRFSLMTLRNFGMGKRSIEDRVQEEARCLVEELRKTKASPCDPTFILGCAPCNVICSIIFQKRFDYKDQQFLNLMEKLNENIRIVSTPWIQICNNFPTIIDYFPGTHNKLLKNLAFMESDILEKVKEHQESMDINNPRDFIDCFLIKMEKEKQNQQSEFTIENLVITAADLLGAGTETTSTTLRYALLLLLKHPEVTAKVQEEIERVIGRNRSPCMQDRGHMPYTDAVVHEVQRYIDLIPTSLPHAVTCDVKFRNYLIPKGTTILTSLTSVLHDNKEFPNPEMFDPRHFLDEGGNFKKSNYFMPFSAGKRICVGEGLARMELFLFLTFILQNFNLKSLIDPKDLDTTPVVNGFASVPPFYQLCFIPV

CYP2E1 = conditions: cited from earlier work
recombinant human CYP3A4 [4] = assay: C152 demethylation, continuous fluorometric assay, Supersomes SS; format: in vitro ADME
recombinant human CYP2B6 [5] = molecular target: T4, recombinant human CYP2B6 (Homo sapiens, UniProt P20813); assay: as above; format: in vitro ADME; conditions: SS(2B6)
T4 sequence (P20813 1-491): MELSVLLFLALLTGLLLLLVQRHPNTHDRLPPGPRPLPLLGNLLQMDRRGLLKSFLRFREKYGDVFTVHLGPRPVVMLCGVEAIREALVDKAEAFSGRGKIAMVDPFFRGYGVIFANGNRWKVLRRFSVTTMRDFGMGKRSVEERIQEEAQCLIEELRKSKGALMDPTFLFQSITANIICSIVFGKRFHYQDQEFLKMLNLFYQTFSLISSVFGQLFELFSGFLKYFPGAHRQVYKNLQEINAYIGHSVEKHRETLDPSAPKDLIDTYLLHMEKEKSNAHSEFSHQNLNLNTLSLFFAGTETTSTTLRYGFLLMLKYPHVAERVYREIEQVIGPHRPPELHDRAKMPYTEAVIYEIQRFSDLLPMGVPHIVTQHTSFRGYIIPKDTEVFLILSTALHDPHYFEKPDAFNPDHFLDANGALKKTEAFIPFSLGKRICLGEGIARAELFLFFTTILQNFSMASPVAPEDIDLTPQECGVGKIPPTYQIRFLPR

recombinant human CYP3A5 [6] = molecular target: T2, recombinant human CYP3A5; assay: as above; format: in vitro ADME; conditions: SS(3A5)
human liver microsomes [7] = format: in vitro ADME
CYP2A6 [8] = conditions: cited from earlier work
CYP2C8 = conditions: cited from earlier work
[9] = molecular target: T3, recombinant human CYP2C19; assay: C152 demethylation, continuous fluorometric assay, Supersomes SS; format: in vitro ADME; conditions: SS(2C19)
recombinant human CYP2B6 [10] = molecular target: T4, recombinant human CYP2B6; assay: Inhibition of C152 metabolism in SS
recombinant human CYP3A4 [11] = molecular target: T1, recombinant human CYP3A4; assay: Inhibition of C152 metabolism in SS
human liver microsomes [12] = assay: Inhibition of C152 metabolism in human liver microsomes; format: biochemical; conditions: 30 μM C152; for IC50: read-out: IC50 ((+)-N-3-Benzylnirvanol)
recombinant human CYP3A5 [13] = molecular target: T2, recombinant human CYP3A5; assay: Inhibition of C152 metabolism in SS; conditions: SS(3A5), 30 μM C152
CYP2A6 [14] = assay: 7-hydroxylation of coumarin in HLM; format: in vitro ADME, human; conditions: HLM(ODN), added CYP2A6 0
[15] = HLM(FVT) + added CYP3A5 43 pmol/mg protein (molar ratio 0.125)
[16] = HLM(ODN) + added CYP3A5 54 pmol/mg protein (molar ratio 0.125)
[17] = N-demethylation of C152, HLM(ODN), added CYP2A6 0
[18] = N-demethylation of C152, HLM(ODN), added CYP2A6 54 pmol/mg protein (ratio 0.125)
[19] = N-demethylation of C152, HLM(ODN), added CYP2A6 108 pmol/mg protein (ratio 0.25)
[20] = N-demethylation of C152, HLM(ODN), added CYP2A6 216 pmol/mg protein (ratio 0.5)
[21] = N-demethylation of C152, HLM(ODN), added CYP2A6 433 pmol/mg protein (ratio 1)

T1 sequence (P08684 2-503 limits assumed): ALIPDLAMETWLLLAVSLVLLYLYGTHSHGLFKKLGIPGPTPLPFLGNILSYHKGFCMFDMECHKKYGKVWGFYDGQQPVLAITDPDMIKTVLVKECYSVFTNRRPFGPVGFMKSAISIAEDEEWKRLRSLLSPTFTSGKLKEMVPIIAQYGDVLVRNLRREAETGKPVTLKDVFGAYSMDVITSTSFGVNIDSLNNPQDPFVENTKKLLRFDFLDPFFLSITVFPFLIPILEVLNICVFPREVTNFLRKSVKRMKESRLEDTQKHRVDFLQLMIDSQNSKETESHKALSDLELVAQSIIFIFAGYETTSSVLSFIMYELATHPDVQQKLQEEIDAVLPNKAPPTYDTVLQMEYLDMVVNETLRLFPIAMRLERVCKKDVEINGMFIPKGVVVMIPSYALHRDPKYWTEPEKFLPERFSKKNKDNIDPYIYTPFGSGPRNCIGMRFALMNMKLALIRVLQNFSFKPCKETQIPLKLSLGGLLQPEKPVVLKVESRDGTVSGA

Clc1ccccc1C(c1ccccc1)(c1ccccc1)n1ccnc1 [Clotrimazole]
IC50 with CYP3A4 lower than the values observed with CYP2B6 and CYP2C19 (recombinant human CYP3A4 [1]): 1–2 orders of magnitude
IC50 (recombinant human CYP3A5 [2]): 0.164 ± 0.039 µM
IC50 ([3]; read-out: IC50 (Clotrimazole), SS(2C19), 30 μM C152): 0.202 ± 0.113 µM

CN(C)c1ccc2c(C(F)(F)F)cc(=O)oc2c1 [C152, 7-Dimethylamino-4-trifluromethylcoumarin]
activity of CYP2E1 with C152 (CYP2E1): do not exhibit any activity
N (the Hill coefficient) (recombinant human CYP3A4 [4]; SS(3A4)): 1.61 ± 0.24
S50 (recombinant human CYP3A4 [4]; SS(3A4)): 4.5 ± 1.2 µM
Vmax (recombinant human CYP3A4 [4]; SS(3A4)): 23.8 ± 4.2 min⁻¹
N (the Hill coefficient) (recombinant human CYP3A4 [4]; SS(3A4)+CYP2E1): 1.28 ± 0.31
S50 (recombinant human CYP3A4 [4]; SS(3A4)+CYP2E1): 10.2 ± 2.8 µM
Vmax (recombinant human CYP3A4 [4]; SS(3A4)+CYP2E1): 34.0 ± 4.6 min⁻¹
S50 (recombinant human CYP2B6 [5]): 1.8 ± 0.2 µM
Vmax (recombinant human CYP2B6 [5]): 44.2 ± 14.8 min⁻¹
S50 (recombinant human CYP3A5 [6]): 16.4 ± 4.8 µM
Vmax (recombinant human CYP3A5 [6]): 8.8 ± 1.0 min⁻¹
N (the Hill coefficient) (human liver microsomes [7]; [15]): 1.41 ± 0.66
S50 (human liver microsomes [7]; [15]): 1.73 ± 0.66 µM
Vmax (human liver microsomes [7]; [15]): 20.9 ± 5.7 min⁻¹
N (the Hill coefficient) (human liver microsomes [7]; HLM(FVT)+CYP2E1): 1.28 ± 0.33
S50 (human liver microsomes [7]; HLM(FVT)+CYP2E1): 18.9 ± 1.2 µM
Vmax (human liver microsomes [7]; HLM(FVT)+CYP2E1): 20.6 ± 1.3 min⁻¹
N (the Hill coefficient) (human liver microsomes [7]; HLM(FVT), intact): 1.49 ± 0.67
S50 (human liver microsomes [7]; HLM(FVT), intact): 14.2 ± 1.0 µM
Vmax (human liver microsomes [7]; HLM(FVT), intact): 33.6 ± 2.1 min⁻¹
N (the Hill coefficient) (human liver microsomes [7]; HLM(IHG), intact): 1.03 ± 0.09
S50 (human liver microsomes [7]; HLM(IHG), intact): 4.7 ± 2.7 µM
Vmax (human liver microsomes [7]; HLM(IHG), intact): 46.3 ± 3.8 min⁻¹
N (the Hill coefficient) (human liver microsomes [7]; HLM(LBA)+CYP2E1): 1.14 ± 0.26
S50 (human liver microsomes [7]; HLM(LBA)+CYP2E1): 8.8 ± 2.1 µM
Vmax (human liver microsomes [7]; HLM(LBA)+CYP2E1): 62.6 ± 5.6 min⁻¹
N (the Hill coefficient) (human liver microsomes [7]; HLM(LBA), intact): 1.76 ± 0.33
S50 (human liver microsomes [7]; HLM(LBA), intact): 4.4 ± 1.5 µM
Vmax (human liver microsomes [7]; HLM(LBA), intact): 75.0 ± 10.6 min⁻¹
N (the Hill coefficient) (human liver microsomes [7]; HLM(LFJ)+CYP2E1): 1.37 ± 0.44
S50 (human liver microsomes [7]; HLM(LFJ)+CYP2E1): 11.6 ± 2.8 µM
Vmax (human liver microsomes [7]; HLM(LFJ)+CYP2E1): 44.7 ± 5.9 min⁻¹
N (the Hill coefficient) (human liver microsomes [7]; HLM(LFJ), intact): 1.94 ± 0.51
S50 (human liver microsomes [7]; HLM(LFJ), intact): 4.8 ± 1.2 µM
Vmax (human liver microsomes [7]; HLM(LFJ), intact): 47.8 ± 3.2 min⁻¹
N (the Hill coefficient) (human liver microsomes [7]; HLM(NQO), intact): 1.03 ± 0.05
S50 (human liver microsomes [7]; HLM(NQO), intact): 3.7 ± 1.9 µM
Vmax (human liver microsomes [7]; HLM(NQO), intact): 29.9 ± 3.6 min⁻¹
N (the Hill coefficient) (human liver microsomes [7]; [16]): 1.73 ± 0.69
S50 (human liver microsomes [7]; [16]): 1.83 ± 0.96 µM
Vmax (human liver microsomes [7]; [16]): 22.4 ± 1.3 min⁻¹
N (the Hill coefficient) (human liver microsomes [7]; HLM(ODN), intact): 1.40 ± 0.17
S50 (human liver microsomes [7]; HLM(ODN), intact): 3.3 ± 0.5 µM and 3.29 ± 0.53 µM
Vmax (human liver microsomes [7]; HLM(ODN), intact): 37.1 ± 10.2 min⁻¹
N (the Hill coefficient) (human liver microsomes [7]; HLM(S9)+CYP2E1): 1.16 ± 0.37
S50 (human liver microsomes [7]; HLM(S9)+CYP2E1): 3.2 ± 1.5 µM
Vmax (human liver microsomes [7]; HLM(S9)+CYP2E1): 6.6 ± 0.8 min⁻¹
N (the Hill coefficient) (human liver microsomes [7]; HLM(S9), intact): 1.27 ± 0.25
S50 (human liver microsomes [7]; HLM(S9), intact): 5.5 ± 2.9 µM
Vmax (human liver microsomes [7]; HLM(S9), intact): 17.8 ± 4.6 min⁻¹
Km (human liver microsomes [7]; [17]): 3.29 ± 0.53 µM
N (human liver microsomes [7]; [17]): 1.40 ± 0.17
Vmax (human liver microsomes [7]; [17]): 37.1 ± 10.2 min⁻¹
Km (human liver microsomes [7]; [18]): 11.4 ± 0.2 µM
N (human liver microsomes [7]; [18]): 1.30 ± 0.21
Vmax (human liver microsomes [7]; [18]): 29.1 ± 1.3 min⁻¹
Km (human liver microsomes [7]; [19]): 4.15 ± 1.33 µM
N (human liver microsomes [7]; [19]): 1.04 ± 0.05
Vmax (human liver microsomes [7]; [19]): 60.1 ± 10.9 min⁻¹
Km (human liver microsomes [7]; [20]): 6.88 ± 2.47 µM
N (human liver microsomes [7]; [20]): 1.14 ± 0.23
Vmax (human liver microsomes [7]; [20]): 56.2 ± 4.9 min⁻¹
Km (human liver microsomes [7]; [21]): 4.57 ± 2.57 µM
N (human liver microsomes [7]; [21]): 1.38 ± 0.24
Vmax (human liver microsomes [7]; [21]): 75.3 ± 25.2 min⁻¹
ability of CYP2A6 to catalyze demethylation of C152 (CYP2A6 [8]): lacks any ability to catalyze the demethylation of C152
S50 (CYP2C8): 12 ± 6 µM
turnover (CYP2C8): 2.6 ± 0.8 min⁻¹
S50 [9]: 5.7 ± 1.1 µM
Vmax [9]: 8.3 ± 3.4 min⁻¹

CC[C@@]1(c2ccccc2)NC(=O)N(Cc2ccccc2)C1=O [(+)-N-3-Benzylnirvanol, (S)-(+)-N-3-benzylnirvanol]
Maximal inhibition ((+)-N-3-Benzylnirvanol) (recombinant human CYP2B6 [10]; SS(2B6), 30 μM C152): 81 ± 7%
IC50 (recombinant human CYP2B6 [10]; read-out: IC50 ((+)-N-3-Benzylnirvanol), SS(2B6), 30 μM C152): 8.5 ± 2.3 µM
Maximal inhibition ((+)-N-3-Benzylnirvanol) (recombinant human CYP3A4 [11]; SS(3A4), 30 μM C152): 59 ± 10%
IC50 (recombinant human CYP3A4 [11]; read-out: IC50 ((+)-N-3-Benzylnirvanol), SS(3A4), 30 μM C152): 27 ± 3 µM
Maximal inhibition ((+)-N-3-Benzylnirvanol) (human liver microsomes [12]; HLM(FVT)): 62 ± 9%
Maximal inhibition ((+)-N-3-Benzylnirvanol) (human liver microsomes [12]; HLM(IHG)): 47 ± 12%
Maximal inhibition ((+)-N-3-Benzylnirvanol) (human liver microsomes [12]; HLM(LBA)+CYP2E1): 78 ± 36%
Maximal inhibition ((+)-N-3-Benzylnirvanol) (human liver microsomes [12]; HLM(LBA)): 57 ± 10%
Maximal inhibition ((+)-N-3-Benzylnirvanol) (human liver microsomes [12]; HLM(LFJ)+CYP2E1): 95 ± 6%
Maximal inhibition ((+)-N-3-Benzylnirvanol) (human liver microsomes [12]; HLM(LFJ)): 79 ± 22%
Maximal inhibition ((+)-N-3-Benzylnirvanol) (human liver microsomes [12]; HLM(NQO)): 78 ± 43%
Maximal inhibition ((+)-N-3-Benzylnirvanol) (human liver microsomes [12]; HLM(ODN)): 65 ± 4%
IC50 (human liver microsomes [12]; HLM(FVT)): 11 ± 4 µM
IC50 (human liver microsomes [12]; HLM(IHG)): 16 ± 2 µM
IC50 (human liver microsomes [12]; HLM(LBA)+CYP2E1): 26 ± 10 µM
IC50 (human liver microsomes [12]; HLM(LBA)): 0.51 ± 0.03 µM
IC50 (human liver microsomes [12]; HLM(LFJ)+CYP2E1): 12 ± 2 µM
IC50 (human liver microsomes [12]; HLM(LFJ)): 0.49 ± 0.12 µM
IC50 (human liver microsomes [12]; HLM(NQO)): 0.46 ± 0.39 µM
IC50 (human liver microsomes [12]; HLM(ODN)): 19 ± 15 µM
Maximal inhibition ((+)-N-3-Benzylnirvanol) (recombinant human CYP3A5 [13]): 78 ± 21%
IC50 (recombinant human CYP3A5 [13]; read-out: IC50 ((+)-N-3-Benzylnirvanol)): 6.6 ± 1.5 µM

Clc1ccc(Cc2ccncc2)cc1
IC50 (recombinant human CYP2B6 [10]): 0.035 ± 0.01 µM
Maximal inhibition (recombinant human CYP2B6 [10]; SS(2B6), 30 μM C152): 95 ± 3%
IC50 (recombinant human CYP3A4 [11]): 0.225 ± 0.073 µM
Maximal inhibition (human liver microsomes [12]; HLM(FVT)+CYP3A5 (12.5% of total P450)): 89 ± 8%
Maximal inhibition (human liver microsomes [12]; HLM(FVT)): 79 ± 17%
Maximal inhibition (human liver microsomes [12]; HLM(IHG)): 90 ± 3%
Maximal inhibition (human liver microsomes [12]; HLM(LBA)): 88 ± 12%
Maximal inhibition (human liver microsomes [12]; HLM(LFJ)): 84 ± 23%
Maximal inhibition (human liver microsomes [12]; HLM(NQO)): 92 ± 4%
Maximal inhibition (human liver microsomes [12]; HLM(ODN)+CYP3A5 (12.5% of total P450)): 70 ± 3%
Maximal inhibition (human liver microsomes [12]; HLM(ODN)): 91 ± 2%
IC50 [3]: 0.215 ± 0.118 µM

O=c1ccc2ccccc2o1 [Coumarin, coumarin]
N (CYP2A6 [14]): 1.66 ± 0.41
Vmax (CYP2A6 [14]): 5.6 ± 0.5 min⁻¹
